The values below come from ChEMBL document CHEMBL5352464, “Structure based design and evaluation of benzoheterocycle derivatives as potential dual HIV-1 protease and reverse transcriptase inhibitors” (Eur J Med Chem, 2023).

Molecules are shown by their SMILES.

Test [1] addresses Human immunodeficiency virus type 1 reverse transcriptase (Human immunodeficiency virus 1, UniProt Q72547). Put plainly: Inhibition of HIV-1 NL4-3 reverse transcriptase by RT-PCR analysis.
Test [2] concerns the target Human immunodeficiency virus type 1 protease (Human immunodeficiency virus 1, UniProt Q72874). Put plainly: Inhibition of HIV-1 protease expressed in Escherichia coli using Arg-Glu-(EDANS)-Ser-Gln-Asn-Tyr-Pro-Ile-Val-Gln-Lys-([…])-Arg as substrate preincubated with compound for 20 to 30 mins followed by substrate addition and measured after 10 mins by FRET analysis.

In test [3] the target is Human immunodeficiency virus type 1 reverse transcriptase (Human immunodeficiency virus 1) (UniProt Q72547). Put plainly: Inhibition of HIV-1 NL4-3 reverse transcriptase at 100 uM by RT-PCR analysis relative to control.
A short description of test [4]: Selectivity ratio of EC50 for antiviral activity against VSV-G pseudotyped HIV1 NL4-3 infected in human SUP-T1 cells assessed as inhibition of early stage viral replication to EC50 for antiviral activity against VSV-G pseudotyped HIV1 NL4-3 infected in HEK293T cells assessed as inhibition of late stage viral replication. The class given is functional, Human immunodeficiency virus 1.

The subject of test [5] is Human immunodeficiency virus 1. Put plainly: Antiviral activity against VSV-G pseudotyped HIV1 NL4-3 infected in HEK293T cells assessed as inhibition of late stage viral replication pre-infected with cells for 5 hrs followed by compound treatment for 48 hrs and further infected with human SupT1 cells for 48 hrs by luciferase based analysis. The class given is functional, organism-based. As to conditions: Human immunodeficiency virus 1, NL4-3, HEK-293T.

In test [6] the test system is Human immunodeficiency virus 1. Put plainly: Antiviral activity against wild-type HIV1 NL4-3 infected in human SUP-T1 cells assessed as inhibition of viral replication pre-infected with compound for 1 day followed by compound washout and replaced with fresh medium for 48 hrs and further infected with human TZM-bl cells by lucifrease based analysis. The test is classed as functional, organism-based. As to conditions: Human immunodeficiency virus 1, NL4-3, SUP-T1.

The test system of test [7] is Human immunodeficiency virus 1. Put plainly: microbe, parasite or virus in culture. As to conditions: Human immunodeficiency virus 1, NL4-3, SUP-T1, 48 h.
Description: Antiviral activity against VSV-G pseudotyped HIV1 NL4-3 infected in human SUP-T1 cells assessed as inhibition of early stage viral replication incubated for 48 hrs by luciferase based analysis
A short description of test [8]: Selectivity ratio of EC50 for antiviral activity against DRV-resistant HIV1 mutant to EC50 for antiviral activity against wild-type HIV1 NL4-3 infected in human SUP-T1 cells assessed as inhibition of viral replication. The class given is functional, Human immunodeficiency virus 1.
The subject of test [9] is Human immunodeficiency virus 1. Put plainly: microbe, parasite or virus in culture.

What is called IC50 is the concentration that inhibits the measured activity by half. With `CC(C)CN(C[C@@H](O)[C@H](Cc1ccccc1)NC(=O)c1cc2cc(O)ccc2[nH]1)S(=O)(=O)c1ccc(N)cc1`, the figures for the IC50 in test [1] and in test [2] were 102 µM and 860 nM, respectively.
As a reminder, the inhibition is the share of the control response that was lost under treatment. High values mean strong suppression, low ones little suppression. In [3], `COc1ccc(S(=O)(=O)N(CC(C)C)C[C@@H](O)[C@H](Cc2ccccc2)NC(=O)c2coc3ccccc23)cc1` displayed an inhibition of under 20%. Moreover, the IC50 in test [2] was 8960 nM.
For orientation: EC50 means the midpoint of the concentration-response curve. For `COc1ccc(S(=O)(=O)N(CC(C)C)C[C@@H](O)[C@H](Cc2ccccc2)NC(=O)c2cc3cc(O)c(O)cc3[nH]2)cn1`, the “Ratio EC50” value in [4] is listed as 61.59; in [8], 12.9. For the same molecule, the EC50 came to 170 nM in test [5], 170 nM in [6], 10.5 µM in test [7] and 2.19 µM in test [9]. Besides, the half-maximal inhibitory concentration (IC50) in test [1] was 1.52 µM; in test [2], 840 nM.
On to `COc1ccc(S(=O)(=O)N(CC(C)C)C[C@@H](O)[C@H](Cc2ccccc2)NC(=O)c2cc3cc(O)ccc3o2)cc1`, for which the inhibition in test [3] was under 20%. The half-maximal inhibitory concentration (IC50) in [2] stood at 2380 nM.
In the case of `COc1ccc(S(=O)(=O)N(CC(C)C)C[C@@H](O)[C@H](Cc2ccccc2)NC(=O)c2cc3cc(O)c(O)cc3o2)cn1`, the “Ratio EC50” value is 3.45 in test [4] and 4.1 in [8]. Further, the half-maximal effective concentration (EC50) in test [5] was 4200 nM; in test [6] it was 4200 nM; in test [7], 14.5 µM; in test [9] it was 17 µM. Besides, the IC50 in test [1] came to 5.82 µM; in [2], 2310 nM.
Consider `COc1ccc(S(=O)(=O)N(CC(C)C)C[C@@H](O)[C@H](Cc2ccccc2)NC(=O)c2cc3ccc(O)cc3[nH]2)cc1`, for which the half-inhibitory concentration (IC50) in [1] is 164 µM; in [2] it was 500 nM.
On to `COc1ccc(S(=O)(=O)N(CC(C)C)C[C@@H](O)[C@H](Cc2ccccc2)NC(=O)c2coc3cc(O)c(O)cc23)cn1`, for which the “Ratio EC50” value worked out at 12.88 in [4] and 1.6 in [8]. The EC50 amounted to 1760 nM in test [5], 1760 nM in [6], 22.7 µM in test [7] and 2.83 µM in [9]. Also, the values for the IC50 in [1] and in test [2] were 7.5 µM and 1360 nM, respectively.
`COc1ccc(S(=O)(=O)N(CC(C)C)C[C@@H](O)[C@H](Cc2ccccc2)NC(=O)c2cc3cc(O)c(O)cc3o2)cc1`: the “Ratio EC50” value in test [4] came out at 2.12; in test [8] it was 3.8. The EC50 worked out at 4400 nM in [5], 4400 nM in test [6], 9.33 µM in test [7] and 16.6 µM in [9]. The figures for the half-maximal inhibitory concentration (IC50) in [1] and in [2] were 2.35 µM and 1930 nM, respectively.
Consider `CC(C)CN(C[C@@H](O)[C@H](Cc1ccccc1)NC(=O)c1cc2ccc(O)cc2[nH]1)S(=O)(=O)c1ccc(N)cc1`, for which the concentration for half-maximal inhibition (IC50) in [1] came out at 178 µM; in test [2] it was 550 nM.
Take `COc1ccc(S(=O)(=O)N(CC(C)C)C[C@@H](O)[C@H](Cc2ccccc2)NC(=O)c2cc3ccc(O)cc3[nH]2)cn1`: the inhibition in test [3] is under 20%. For the same molecule, in [2], the IC50 was found to be 460 nM.
For `COc1ccc(S(=O)(=O)N(CC(C)C)C[C@@H](O)[C@H](Cc2ccccc2)NC(=O)c2cc3ccc(N)cc3o2)cc1`, in that order: under 20% and 3730 nM.
Regarding `CC(C)CN(C[C@@H](O)[C@H](Cc1ccccc1)NC(=O)O[C@H]1CO[C@H]2OCC[C@H]21)S(=O)(=O)c1ccc(N)cc1`, the EC50 in [5] and in [6] was 2 nM in each case.
On to `COc1ccc(S(=O)(=O)N(CC(C)C)C[C@@H](O)[C@H](Cc2ccccc2)NC(=O)c2coc3ccc(O)cc23)cc1`, for which the half-maximal inhibitory concentration (IC50) in [1] amounted to 82.7 µM; in [2], 2050 nM.
On the same counts, the results for `COc1ccc(S(=O)(=O)N(CC(C)C)C[C@@H](O)[C@H](Cc2ccccc2)NC(=O)c2cc3cc(O)c(O)cc3[nH]2)cc1` are 96.5 µM and 1070 nM.
With `COc1ccc(S(=O)(=O)N(CC(C)C)C[C@@H](O)[C@H](Cc2ccccc2)NC(=O)c2cc3ccc(O)cc3o2)cn1`, the IC50 in test [1] worked out at 223 µM; in test [2], 2840 nM.
In test [3], `CC(C)CN(C[C@@H](O)[C@H](Cc1ccccc1)NC(=O)c1cc2cc(O)ccc2o1)S(=O)(=O)c1ccc(N)cc1` registered an inhibition of under 20%. For the same molecule, the half-inhibitory concentration (IC50) in [2] came to 4530 nM.
As for `O=C1Nc2ccc(Cl)cc2[C@@](C#CC2CC2)(C(F)(F)F)O1` [EFAVIRENZ], the EC50 in test [5] was over 100000 nM.
In turn, `COc1ccc(S(=O)(=O)N(CC(C)C)C[C@@H](O)[C@H](Cc2ccccc2)NC(=O)c2cc3ccc(O)cc3o2)cc1` gave an inhibition in test [3] of under 20%. Besides, the 50% inhibitory concentration (IC50) in test [2] worked out at 2000 nM.
Consider `COc1ccc(S(=O)(=O)N(CC(C)C)C[C@@H](O)[C@H](Cc2ccccc2)NC(=O)c2cc3cc(O)ccc3o2)cn1`, for which the IC50 came out at 118 µM in test [1] and 1980 nM in test [2].
In test [3], `COc1ccc(S(=O)(=O)N(CC(C)C)C[C@@H](O)[C@H](Cc2ccccc2)NC(=O)c2cc3ccccc3[nH]2)cc1` had an inhibition of under 20%. Besides, in test [2], the IC50 was found to be 7510 nM.
For the molecule `COc1ccc(S(=O)(=O)N(CC(C)C)C[C@@H](O)[C@H](Cc2ccccc2)NC(=O)c2c[nH]c3ccccc23)cc1`, in test [3], the inhibition is under 20%. For the same molecule, in test [2], the IC50 is 12900 nM.
On the same counts, the results for `CC(C)CN(C[C@@H](O)[C@H](Cc1ccccc1)NC(=O)c1cc2ccccc2o1)S(=O)(=O)c1ccc(N)cc1` are under 20% and 16300 nM.
On to `COc1ccc(S(=O)(=O)N(CC(C)C)C[C@@H](O)[C@H](Cc2ccccc2)NC(=O)c2coc3cc(O)ccc23)cc1`, for which the 50% inhibitory concentration (IC50) in test [1] is 60.3 µM; in test [2] it was 1560 nM.
Molecule `COc1ccc(S(=O)(=O)N(CC(C)C)C[C@@H](O)[C@H](Cc2ccccc2)NC(=O)c2cc3cc(N)ccc3o2)cc1` displayed an inhibition in [3] of under 20%. The IC50 in test [2] is 5300 nM.
On the same counts, the results for `CC(C)CN(C[C@@H](O)[C@H](Cc1ccccc1)NC(=O)c1cc2ccc(O)cc2o1)S(=O)(=O)c1ccc(N)cc1` are under 20% and 3050 nM.
On the same counts, the results for `COc1ccc(S(=O)(=O)N(CC(C)C)C[C@@H](O)[C@H](Cc2ccccc2)NC(=O)c2cc3cc(O)ccc3[nH]2)cc1` are under 20% and 580 nM.
As to `COc1ccc(S(=O)(=O)N(CC(C)C)C[C@@H](O)[C@H](Cc2ccccc2)NC(=O)c2cc3ccccc3o2)cc1`, the IC50 is 65.5 µM in test [1] and 9210 nM in test [2].
Turning to `COc1ccc(S(=O)(=O)N(CC(C)C)C[C@@H](O)[C@H](Cc2ccccc2)NC(=O)c2cc3cc(O)ccc3[nH]2)cn1`, in test [3], the inhibition is under 20%. In test [2], the half-inhibitory concentration (IC50) amounted to 740 nM.
